The results in this text go back to ChEMBL document CHEMBL4725496, “Escaping from Flatland: Antimalarial Activity of sp-Rich Bridged Pyrrolidine Derivatives” (ACS Med Chem Lett, 2020).

As a reminder, the logD is lipophilicity at a set pH, counting ionised and neutral species. Low readings indicate lower lipophilicity, high ones higher lipophilicity. The term pIC50 denotes −log10 of the IC50, conventionally taken in molar units. By inhibition is commonly meant the relative decrease from the control value, in per cent.

Structures are written as SMILES. pIC50: −log10 of the molar value. Some results are limits rather than exact numbers.

Tested on in one data set: not listed separately
Nature of the data set: 1-Octanol/phosphate buffered-saline distribution coefficient, logD of compound in pH 7.4 at 75 uM measured after 2 hrs under shaking condition by LC-MS analysis. The format is physicochemical.
Details: not given
Consider `O=C(NCC12CC(CN1Cc1ccccc1)C2)c1cc(Cl)cc(C(F)(F)F)c1`, for which the log distribution coefficient (logD) at 2 h, 75 µM is 3.2.

Another data set relates to HepG2. Nature of the data set: Cytotoxicity against human HepG2 cells incubated for 72 hrs by Cell Titer Glo assay. Format: cell-based. Particulars: HepG2, 72 h. (In general: In ATP-based viability assays light output follows the ATP content of the culture.)
Regarding `O=C(NCC12CC(CN1Cc1ccccc1)C2)c1cc(Cl)cc(C(F)(F)F)c1`, the pIC50 is less than 4.77.

For a further data set, the system named is Plasmodium falciparum. In words: Antimalarial activity against chloroquine-sensitive Plasmodium falciparum 3D7 infected in human erythrocytes assessed as reduction in parasitemia incubated for 72 hrs by SYBR green dye based fluorescence assay. Format: functional, organism-based. Particulars: 3D7, Erythrocyte.
For the compound `COc1ccc(C(=O)NCC23CC(CN2Cc2ccccc2)C3)cc1Cl`, the negative-log IC50 (pIC50) is 4.80. On to `O=C(NCC12CC(CN1Cc1ccccc1)C2)c1ccc(Cl)c(Cl)c1`, for which the negative logarithm of the IC50 (pIC50) was 5.29. As for `COc1ccc(C2(C(=O)NCC34CC(CN3Cc3ccccc3)C4)CCCC2)cc1`, the pIC50 was 5.02. For `CC(C)(C)OC(=O)Nc1ccccc1C(=O)NCC12CC(CN1Cc1ccccc1)C2`, the pIC50 is 5.14. On the same count and under the same terms, then `O=C(NCC12CC(CN1Cc1ccccc1)C2)c1cc(Br)cs1`, with 4.66; and `COc1ccc2cc(C(=O)NCC34CC(CN3Cc3ccccc3)C4)ccc2c1`, with 5.44. In the case of `O=C(NCC12CC(CN1Cc1ccccc1)C2)C1(c2ccc(Cl)cc2Cl)CC1`, the pIC50 was 5.96. As to `Cc1nn(-c2ccccc2)nc1C(=O)NCC12CC(CN1Cc1ccccc1)C2`, the pIC50 was 4.85. In the case of `O=C(NCC12CC(CN1Cc1ccccc1)C2)c1cc2c(Br)cccc2[nH]1`, the pIC50 was 5.80.

On to `O=C(NCC12CC(CN1Cc1ccccc1)C2)c1cc(Cl)cc(C(F)(F)F)c1`, for which the pIC50 is 5.89.

`O=C(NCC12CC(CN1Cc1ccccc1)C2)c1ccc(C(F)(F)F)cc1Cl`: the pIC50 is 5.06. `COc1cc(C(=O)NCC23CC(CN2Cc2ccccc2)C3)ccc1Br`: the pIC50 was 5.24.

For `O=C(NCC12CC(CN1Cc1ccccc1)C2)c1ccc(-c2ccco2)cc1`, the pIC50 was 5.03. The same measure, in the same setting: then `O=C(NCC12CC(CN1Cc1ccccc1)C2)C1(c2ccc(Cl)cc2)CCC1`, with 5.21.

On to `Cc1cc(C(=O)NCC23CC(CN2Cc2ccccc2)C3)no1`, for which the pIC50 is 5.47. On to `O=C(Cc1ccc(Br)c(F)c1)NCC12CC(CN1Cc1ccccc1)C2`, for which the pIC50 is 4.62. Turning to `O=C(NCC12CC(CN1Cc1ccccc1)C2)c1cccc(OC(F)(F)F)c1`, the negative logarithm of the IC50 (pIC50) was 5.03.

Consider `O=C(NCC12CC(CN1Cc1ccccc1)C2)c1cc2cc(Br)ccc2o1`, for which the negative-log IC50 (pIC50) was 5.41. For `O=C(NCC12CC(CN1Cc1ccccc1)C2)c1ccc(Br)s1`, the pIC50 was 4.90. Same read-out and setting: next, `C=Cc1ccc(C(=O)NCC23CC(CN2Cc2ccccc2)C3)cc1`: 5.07; `COc1cccc(C(=O)NCC23CC(CN2Cc2ccccc2)C3)c1C`: 4.82; `O=C(/C=C/c1cccc(F)c1)NCC12CC(CN1Cc1ccccc1)C2`: 4.66. Consider `O=C(NCC12CC(CN1Cc1ccccc1)C2)c1ccc2[nH]ccc2c1`, for which the pIC50 is 4.77. In the case of `O=C(NCC12CC(CN1Cc1ccccc1)C2)c1ccc2cccc(Br)c2n1`, the pIC50 is 5.05. For the compound `Cn1ccc2ccc(C(=O)NCC34CC(CN3Cc3ccccc3)C4)cc21`, the pIC50 was 5.15.

For the compound `O=C(NCC12CC(CN1Cc1ccccc1)C2)c1ccc(Br)c(Cl)c1`, the pIC50 was 5.44. `O=C(NCC12CC(CN1Cc1ccccc1)C2)c1ccc(OC(F)(F)F)cc1`: the pIC50 is 4.90. On to `Cc1cc(C(=O)NCC23CC(CN2Cc2ccccc2)C3)ccc1Br`, for which the pIC50 was 5.03. On the same count and under the same terms, next, `O=C(NCC12CC(CN1Cc1ccccc1)C2)c1cc(F)c(Cl)c(F)c1`: 4.92; `O=C(NCC12CC(CN1Cc1ccccc1)C2)c1ccc(-n2cccn2)cc1Cl`: 4.72; `COc1cccc2c(C(=O)NCC34CC(CN3Cc3ccccc3)C4)c[nH]c12`: 4.72. Regarding `O=C(/C=C/c1ccc(F)cc1)NCC12CC(CN1Cc1ccccc1)C2`, the pIC50 was 4.89. For `O=C(NCC12CC(CN1Cc1ccccc1)C2)c1ccc(F)c(Cl)c1`, the negative-log IC50 (pIC50) was 5.07. On the same count and under the same terms, next, `O=C(NCC12CC(CN1Cc1ccccc1)C2)c1ccc(Cl)c(Br)c1`: 5.28; `O=C(NCC12CC(CN1Cc1ccccc1)C2)c1ccc(Br)c(F)c1`: 5.00; `O=C(NCC12CC(CN1Cc1ccccc1)C2)c1ccc(Br)cc1Cl`: 5.06.

`O=C(NCC12CC(CN1Cc1ccccc1)C2)C1CC1c1cc(Cl)cc(Cl)c1` (configuration not stated): the negative-log IC50 (pIC50) was 5.35.

In the case of `Cc1ccc(-c2cc(C(=O)NCC34CC(CN3Cc3ccccc3)C4)[nH]n2)o1`, the pIC50 was 4.82. `O=C(NCC12CC(CN1Cc1ccccc1)C2)c1cc(Br)cc(C(F)(F)F)c1`: the pIC50 was 5.57.

Take `O=C(CCCC1CCCCC1)NCC12CC(CN1Cc1ccccc1)C2`: the pIC50 is 4.89.

`O=C(Cc1cccc(C(F)(F)F)c1)NCC12CC(CN1Cc1ccccc1)C2`: the pIC50 is 4.66. Turning to `CSc1ccc(Cl)c(C(=O)NCC23CC(CN2Cc2ccccc2)C3)c1`, the negative logarithm of the IC50 (pIC50) is 4.74. Same read-out and setting: next, `O=C(NCC12CC(CN1Cc1ccccc1)C2)c1ccc(F)c(Br)c1`: 4.92. In the case of `O=C(/C=C/c1ccccc1Cl)NCC12CC(CN1Cc1ccccc1)C2`, the pIC50 is 5.24. As to `Cc1ccc(Cl)cc1C(=O)NCC12CC(CN1Cc1ccccc1)C2`, the negative logarithm of the IC50 (pIC50) is 4.72. For `O=C(NCC12CC(CN1Cc1ccccc1)C2)c1ccc(OCc2ccccc2)cc1`, the pIC50 is 5.21. Consider `CCCCCCCCCC(=O)NCC12CC(CN1Cc1ccccc1)C2`, for which the negative logarithm of the IC50 (pIC50) was 5.13. Still for that read-out and setting: next, `O=C(NCC12CC(CN1Cc1ccccc1)C2)c1c[nH]c2c(Cl)cccc12`: 5.29. As to `COc1ccc(NC(=O)OC(C)(C)C)c(C(=O)NCC23CC(CN2Cc2ccccc2)C3)c1`, the pIC50 was 5.21. With `O=C(NCC12CC(CN1Cc1ccccc1)C2)c1cc(Br)c(Br)s1`, the pIC50 is 5.43. With `CC(C)(C)c1cc(C(=O)NCC23CC(CN2Cc2ccccc2)C3)cc(C(C)(C)C)c1`, the negative-log IC50 (pIC50) is 5.59. With `O=C(NCC12CC(CN1Cc1ccccc1)C2)c1ccc(Cl)c(C(F)(F)F)c1`, the pIC50 was 5.48.

Turning to `O=C(/C=C/c1ccccc1F)NCC12CC(CN1Cc1ccccc1)C2`, the negative-log IC50 (pIC50) is 4.96.

Consider `O=C(NCC12CC(CN1Cc1ccccc1)C2)c1cc(F)cc(C(F)(F)F)c1`, for which the pIC50 was 5.05. Still for that read-out and setting: next, `O=C(NCC12CC(CN1Cc1ccccc1)C2)c1ccc2ccccc2c1`: 4.85.

For the compound `O=C(NCC12CC(CN1Cc1ccccc1)C2)c1coc2ccccc12`, the negative-log IC50 (pIC50) was 4.82. The same measure, in the same setting: then `O=C(NCC12CC(CN1Cc1ccccc1)C2)c1ccc2[nH]nc(Br)c2c1`, with 5.26; and `CC(C)(C)OC(=O)N[C@H](C(=O)NCC12CC(CN1Cc1ccccc1)C2)C1CCCCC1`, with 4.62; and `O=C(NCC12CC(CN1Cc1ccccc1)C2)c1cccc(Cl)c1`, with 4.89.

Regarding `Cc1cc2[nH]c(C(=O)NCC34CC(CN3Cc3ccccc3)C4)cc2o1`, the negative logarithm of the IC50 (pIC50) is 4.96. Take `O=C(Cc1ccc(Cl)c(Cl)c1)NCC12CC(CN1Cc1ccccc1)C2`: the pIC50 was 4.96.

Tested on in another data set: not listed separately
In words: Intrinsic clearance in rat hepatocytes at 1 uM incubated upto 90 mins measured per 10^6 cells by LC-MS/MS analysis. The format is ADME, cell-based, Hepatocyte. The conditions noted are these: 1.5 h, time 0-90 min.
In turn, `O=C(NCC12CC(CN1Cc1ccccc1)C2)c1cc(Cl)cc(C(F)(F)F)c1` displayed a CLint of 8 µL/min/1e6 cells.

In the next data set the test system is Plasmodium falciparum. Nature of the data set: Antimalarial activity against multi-drug-resistant Plasmodium falciparum Dd2 by LDH assay. The format is functional, organism-based.
Details: not given
`O=C(NCC12CC(CN1Cc1ccccc1)C2)c1cc(Cl)cc(C(F)(F)F)c1` gave a negative-log IC50 (pIC50) of 5.27.

Tested on in another data set: not listed separately
In words: Intrinsic clearance in human liver microsome at 1 uM measured upto 60 mins by LC-MS/MS analysis. The format is ADME. The conditions noted are these: microsomes, 1 h.
Turning to `O=C(NCC12CC(CN1Cc1ccccc1)C2)c1cc(Cl)cc(C(F)(F)F)c1`, the CLint was found to be 27 µL/min/mg.

Another data set has as its system Plasmodium falciparum. Nature of the data set: Antimalarial activity against […] Plasmodium falciparum 3D7 by LDH assay. Format: functional, organism-based.
Details: not given
The compound `O=C(NCC12CC(CN1Cc1ccccc1)C2)c1cc(Cl)cc(C(F)(F)F)c1` had a pIC50 of 5.37.

Tested on in another data set: not listed separately
In words: Kinetic solubility of compound in PBS buffer measured after 2 hrs under shaking condition by UV spectroscopic analysis. The format is physicochemical. The conditions noted are these: read-out: Kinetic_solubility.
Consider `O=C(NCC12CC(CN1Cc1ccccc1)C2)c1cc(Cl)cc(C(F)(F)F)c1`, for which the solubility kinetic at 2 h was greater than 200 µM.

The next data set has as its system Plasmodium falciparum. Nature of the data set: Antimalarial activity against chloroquine-sensitive Plasmodium falciparum 3D7 infected in human erythrocytes assessed as reduction in parasitemia at 10 uM incubated for 72 hrs by SYBR green dye based fluorescence assay relative to control. Format: functional. Particulars: 3D7, Erythrocyte.
Turning to `O=C(NCC12CC(CN1Cc1ccccc1)C2)c1ccc(Cl)cc1`, the inhibition at 10 µM turned out to be 38%. Take `O=C(NCC12CC(CN1Cc1ccccc1)C2)c1ccccc1Cl`: the inhibition at 10 µM is -7.9%. Regarding `O=C(NCC12CC(CN1Cc1ccccc1)C2)c1cccc(Br)c1`, the inhibition at 10 µM amounted to 35%. As to `O=C(Cc1ccc(F)c(Br)c1)NCC12CC(CN1Cc1ccccc1)C2`, the inhibition at 10 µM stood at 40%. `O=C(NCC12CC(CN1Cc1ccccc1)C2)c1cccc(Cl)c1Cl`: the inhibition at 10 µM was -8.2%. For the compound `O=C(NCC12CC(CN1Cc1ccccc1)C2)c1cc(F)ccc1F`, the inhibition at 10 µM was 67%. On to `O=C(NCC12CC(CN1Cc1ccccc1)C2)c1ccccc1`, for which the inhibition at 10 µM is -20%.

Turning to `Cc1cccc(C(=O)NCC23CC(CN2Cc2ccccc2)C3)c1`, the inhibition at 10 µM is 7.6%.

Consider `O=C(Cc1cc(F)ccc1F)NCC12CC(CN1Cc1ccccc1)C2`, for which the inhibition at 10 µM was -8.2%.
